Test results taken from patent publication US12441690B2, “Benzamide derivative compound, method for preparing same, and pharmaceutical composition for treating or preventing inflammatory disease containing same as active ingredient” (SEOUL NATIONAL UNIVERSITY R&DB FOUNDATION, priority 2017, dated 2025).
pIC50: −log10 of the molar value.

Target: PDE4B enzyme (Homo sapiens (Human), UniProt Q07343)
Assay: PDE4B inhibitory activity, LANCE Ultra cAMP assay
Assay type: biochemical
Conditions: 50% inhibition from cAMP to 5′AMP
Procedure: In order to evaluate the PDE4B inhibitory activity of the compounds according to the present invention, the following experiment was performed using LANCE Ultra cAMP assay kit (Perkin Elmer, U.S.A).
Particularly, 5 μl of the 3 nM cAMP dissolved reaction buffer was added to each reaction well (LANCE Ultra cAMP assay kit). Then, each example compound dilution solution (2.5 μl) and PDE4B enzyme (0.1 ng/well, BPS Biosciences, San Diego, U.S.A) were added to the well, followed by incubation for 1 hour at 37° C. Next, 5 μl of ULight-anti-cAMP detection reactant supplemented with 5 μl of Eu-cAMP tracer and 1 mM IBMX (LANCE Ultra cAMP assay kit) was added thereto, followed by incubation for 1 hour at 37° C.

Sequence of PDE4B enzyme (Q07343 whole entry): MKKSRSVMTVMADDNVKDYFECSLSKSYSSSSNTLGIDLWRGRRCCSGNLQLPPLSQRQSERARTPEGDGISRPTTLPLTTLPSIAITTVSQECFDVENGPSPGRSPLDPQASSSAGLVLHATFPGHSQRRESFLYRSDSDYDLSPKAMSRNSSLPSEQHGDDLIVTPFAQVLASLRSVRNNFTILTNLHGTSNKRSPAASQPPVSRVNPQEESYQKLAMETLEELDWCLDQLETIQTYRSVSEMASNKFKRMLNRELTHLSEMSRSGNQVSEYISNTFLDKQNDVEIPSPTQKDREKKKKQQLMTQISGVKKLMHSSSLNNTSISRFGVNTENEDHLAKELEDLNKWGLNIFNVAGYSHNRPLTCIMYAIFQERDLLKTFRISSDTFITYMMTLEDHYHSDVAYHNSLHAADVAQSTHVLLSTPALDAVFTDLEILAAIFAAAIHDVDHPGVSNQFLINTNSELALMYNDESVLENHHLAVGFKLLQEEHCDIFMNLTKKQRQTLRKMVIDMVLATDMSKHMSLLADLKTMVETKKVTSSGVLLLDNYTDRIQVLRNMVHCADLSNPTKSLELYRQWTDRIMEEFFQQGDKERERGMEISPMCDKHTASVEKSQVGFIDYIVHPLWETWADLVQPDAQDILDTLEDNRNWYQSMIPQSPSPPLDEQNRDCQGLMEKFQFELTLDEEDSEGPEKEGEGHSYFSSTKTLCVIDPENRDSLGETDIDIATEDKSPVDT

**Q.** With COc1ccc(-c2nc(SC)ncc2C(=O)Nc2c(Cl)cncc2Cl)cc1OC [Example 2, N-(3,5-dichloropyridine-4-yl)-4-(3,4-dimethoxyphenyl)-2-(methylthio)pyrimidine-5-carboxamide] as the compound, how does the pIC50 read?
**A.** 6.75

**Q.** How did the pIC50 turn out when COc1ccc(-c2nc(SC)ncc2C(=O)Nc2ccncc2)cc1OC [Example 3, 4-(3,4-dimethoxyphenyl)-2-(methylthio)-N-(pyridine-4-yl)pyrimidine-5-carboxamide] was run?
**A.** 7.02

**Q.** How did the pIC50 turn out when CSc1ncc(C(=O)NCCc2c[nH]c3ccccc23)c(N2CCOCC2)n1 [Example 4, N-(2-(1H-indole-3-yl)ethyl)-2-(methylthio)-4-morpholinopyrimidine-5-carboxamide] was run?
**A.** 6.78

**Q.** With COc1ccc(-c2nc(SC)ncc2C(=O)NC2CCOCC2)cc1OC [Example 5, 4-(3,4-dimethoxyphenyl)-2-(methylthio)-N-(tetrahydro-2H-pyran-4-yl)pyrimidine-5-carboxamide] as the compound, how does the pIC50 read?
**A.** 6.62

**Q.** With CSc1ncc(C(=O)Nc2ccc(F)cc2)c(N2CCOCC2)n1 [Example 6, N-(4-fluorophenyl)-2-(methylthio)-4-morpholinopyrimidine-5-carboxamide] as the compound, how does the pIC50 read?
**A.** 6.44

**Q.** COc1ccc(CCNC(=O)c2cnc(SC)nc2N2CCOCC2)cc1OC [Example 7, N-(3,4-dimethoxyphenetyl)-2-(methylthio)-4-morpholinopyrimidine-5-carboxamide] was tested. Which pIC50 did it give?
**A.** > 8.00

**Q.** With COc1ccc(CNC(=O)c2cnc(C(F)(F)F)nc2N2CCOCC2)c(OC)c1 [Example 8, N-(2,4-dimethoxybenzyl)-4-morpholino-2-(trifluoromethyl)pyrimidine-5-carboxamide] as the compound, how does the pIC50 read?
**A.** 7.13

**Q.** With COc1ccc(CNC(=O)c2cnc(SC)nc2N2CCOCC2)c(OC)c1 [Example 9, N-(2,4-dimethoxybenzyl)-2-(methylthio)-4-morpholinopyrimidine-5-carboxamide] as the compound, how does the pIC50 read?
**A.** 6.42

**Q.** How did the pIC50 turn out when CSc1ncc(C(=O)Nc2c(Cl)cncc2Cl)c(N2CCOCC2)n1 [Example 10, N-(3,5-dichloropyridine-4-yl)-2-(methylthio)-4-morpholinopyrimidine-5-carboxamide] was run?
**A.** 7.14

**Q.** COc1ccc(NC(=O)c2cnc(C(F)(F)F)nc2N2CCOCC2)cc1OC [Example 11, N-(3,4-dimethoxyphenyl)-4-morpholino-2-(trifluoromethyl)pyrimidine-5-carboxamide] was tested. Which pIC50 did it give?
**A.** 7.17

**Q.** COc1ccc(-c2nc(C(F)(F)F)ncc2C(=O)NC2CCOCC2)cc1OC [Example 12, 4-(3,4-dimethoxyphenyl)-N-(tetrahydro-2H-pyran-4-yl)-2-(trifluoromethyl)pyrimidine-5-carboxamide] was tested. Which pIC50 did it give?
**A.** 6.58

**Q.** CCN(CC)C(=O)c1cnc(C(F)(F)F)nc1-c1ccc(OC)c(OC)c1 [Example 13, 4-(3,4-dimethoxyphenyl)-N,N-diethyl-2-(trifluoromethyl)pyrimidine-5-carboxamide] was tested. Which pIC50 did it give?
**A.** 6.08

**Q.** With COc1ccc(-c2nc(S(C)(=O)=O)ncc2C(=O)NC2CCOCC2)cc1OC [Example 14, 4-(3,4-dimethoxyphenyl)-2-(methylsulfonyl)-N-(tetrahydro-2H-pyran-4-yl)pyrimidine-5-carboxamide] as the compound, how does the pIC50 read?
**A.** 6.30

**Q.** COc1ccc(-c2nc(C(F)(F)F)ncc2C(=O)NC2CC2)cc1OC [Example 15, N-cyclopropyl-4-(3,4-dimethoxyphenyl)-2-(trifluoromethyl)pyrimidine-5-carboxamide] was tested. Which pIC50 did it give?
**A.** 6.60

**Q.** How did the pIC50 turn out when COc1ccc(-c2nc(C(F)(F)F)ncc2C(=O)Nc2c(Cl)cncc2Cl)cc1OC [Example 16, N-(3,5-dichloropyridine-4-yl)-4-(3,4-dimethoxyphenyl)-2-(trifluoromethyl)pyrimidine-5-carboxamide] was run?
**A.** 7.36

**Q.** COc1ccc(-c2nc(SC)ncc2C(=O)NC2CC2)cc1OC [Example 18, N-cyclopropyl-4-(3,4-dimethoxyphenyl)-2-(methylthio)pyrimidine-5-carboxamide] was tested. Which pIC50 did it give?
**A.** 6.32

**Q.** With COc1ccc(-c2nc(S(C)(=O)=O)ncc2C(=O)NC2CC2)cc1OC [Example 19, N-cyclopropyl-4-(3,4-dimethoxyphenyl)-2-(methylsulfonyl)pyrimidine-5-carboxamide] as the compound, how does the pIC50 read?
**A.** 6.72

**Q.** With COc1ccc(-c2nc(SC)ncc2C(=O)Nc2cc(C(C)C)c(N)c(C(C)C)c2)cc1OC [Example 20, N-(4-amino-3,5-diisopropylphenyl)-4-(3,4-dimethoxyphenyl)-2-(methylthio)pyrimidine-5-carboxamide] as the compound, how does the pIC50 read?
**A.** 6.13

**Q.** COc1ccc(-c2nc(C(F)(F)F)ncc2C(=O)Nc2cc(C(C)C)c(N)c(C(C)C)c2)cc1OC [Example 21, N-(4-amino-3,5-diisopropylphenyl)-4-(3,4-dimethoxyphenyl)-2-(trifluoromethyl)pyrimidine-5-carboxamide] was tested. Which pIC50 did it give?
**A.** 6.65

**Q.** How did the pIC50 turn out when COc1ccc(NC(=O)c2cnc(SC)nc2N2CCN(CCO)CC2)cc1OC [Example 22, N-(3,4-dimethoxyphenyl)-4-(4-(2-hydroxyethyl)piperazine-1-yl)-2-(methylthio)pyrimidine-5-carboxamide] was run?
**A.** 6.06

**Q.** O=C(NCCc1c[nH]c2ccccc12)c1cnc(C(F)(F)F)nc1N1CCOCC1 [Example 24, N-(2-(1H-indole-3-yl)ethyl)-4-morpholino-2-(trifluoromethyl)pyrimidine-5-carboxamide] was tested. Which pIC50 did it give?
**A.** 6.33

**Q.** COc1ccc(-c2nc(C(F)(F)F)ncc2C(=O)NCCN2CCOCC2)cc1OC [Example 26, 4-(3,4-dimethoxyphenyl)-N-(2-morpholinoethyl)-2-(trifluoromethyl)pyrimidine-5-carboxamide] was tested. Which pIC50 did it give?
**A.** 6.71

**Q.** With COc1ccc(-c2nc(SC)ncc2C(=O)NCCN2CCOCC2)cc1OC [Example 27, 4-(3,4-dimethoxyphenyl)-2-(methylthio)-N-(2-morpholinoethyl)pyrimidine-5-carboxamide] as the compound, how does the pIC50 read?
**A.** 6.07

**Q.** How did the pIC50 turn out when COc1ccc(NC(=O)c2cnc(SC)nc2-c2ccc(OC)c(OC)c2)cc1OC [Example 29, N,4-bis(3,4-dimethoxyphenyl)-2-(methylthio)pyrimidine-5-carboxamide] was run?
**A.** 6.20

**Q.** How did the pIC50 turn out when COc1ccc(NC(=O)c2cnc(C(F)(F)F)nc2-c2ccc(OC)c(OC)c2)cc1OC [Example 30, N,4-bis(3,4-dimethoxyphenyl)-2-(trifluoromethyl)pyrimidine-5-carboxamide] was run?
**A.** 7.21
